The results in this text go back to PubChem BioAssay AID504640 (Southern Research Specialized Biocontainment Screening …, 2011).

Active and inactive are the calls of the source. How the calls were made is not given here. Where a SMILES comes first, the peptide text is derived from it. The star is where a group is joined. Cbz = O=C(OCc1ccccc1)* Where only a bound is given, the exact number is not on record here.

The first experiment relates to THP-1 cell viability, cytotoxicity. Put plainly: cytotoxicity in THP-1 cells, cytotoxicity control, cell-based (AID 504640).
Conditions: not given
In general, CC50 refers to the concentration at which the toxic effect on the cells reaches its halfway point. As to `CC[N+](C)(CC)CCCCOc1ccc2c(c1)C(=O)c1cc(OCCCC[N+](C)(CC)CC)ccc1-2`, the 50% cytotoxic concentration (CC50) is 23.1 µM.

Regarding `Cc1cccc(/C=C/C(=O)c2ccc([N+](=O)[O-])o2)c1`, the CC50 was 6.64 µM.

Consider `CCOC(=O)c1ccc(NC(=O)Cn2ncc(Cl)c(Cl)c2=O)cc1`, for which the CC50 was 0.88 µM.

`COC(=O)C(Nc1nc(SCC(=O)NC2CCCCC2)nc2ccccc12)c1ccccc1` (configuration not stated): the 50% cytotoxic concentration (CC50) is 50.4 µM.

With `Oc1ccccc1/C=N/Nc1ccnc(SCc2ccccc2)n1`, the CC50 was 44.9 µM.

As for `O=C(/C=C/c1ccccc1)N1CCN(CCN2C(=O)c3cccc4cccc(c34)C2=O)CC1`, the CC50 is 41.2 µM.

Regarding `CNc1nc(SCc2ccccc2Cl)nc2c1CCCC2`, the cytotoxic concentration (CC50) is 28 µM.

On to `Cc1cccc(-c2oc3ccc(-c4ccc5c(c4)OCO5)cc3c2C#Cc2cncn2C)c1`, for which the half-maximal cytotoxic concentration (CC50) is 35.9 µM.

Turning to `COC(=O)c1cc(=O)n(-c2ccc(F)cc2)c(=Nc2ccc(F)cc2)s1`, the 50% cytotoxic concentration (CC50) is 17.6 µM.

Turning to `Cc1ccc2c(c1)c(C1=c3ccccc3=NC1=O)c(O)n2C`, the cytotoxic concentration (CC50) is 12.6 µM.

As to `Cc1nn2c(NCc3ccccn3)cc(C(C)C)nc2c1-c1ccccc1`, the CC50 is 2.88 µM.

On to `CC(C)NC(=O)c1sc(=S)n2c1[nH]c(=O)c1ccc(C(=O)NCCc3ccc(Cl)cc3)cc12`, for which the 50% cytotoxic concentration (CC50) is 52.8 µM.

Take `CCOC(=O)CNC(=O)[C@H](Cc1ccccc1)NC(=O)OCc1ccccc1` (Cbz-Phe-Gly-OEt): the cytotoxic concentration (CC50) was 43.1 µM.

`Cc1cc(Br)ccc1NC(=O)c1cnc(N2CCN(c3ccccn3)CC2)c2ccccc12`: the CC50 was 35.6 µM.

Turning to `Cc1ccc2ccc3ccc(C)nc3c2n1`, the CC50 was < 0.2 µM.

With `c1ccc(/N=C2\N=C(Nc3ccccn3)c3ccccc32)nc1`, the CC50 was < 0.2 µM.

Take `Cc1ccc(C(=O)N/N=C(/CC(=O)c2cccs2)C(F)(F)F)cc1`: the CC50 is 40.4 µM.

As to `CCOC(=O)C(C)Sc1ncnc2c1nnn2-c1ccc(F)cc1` (configuration not stated), the CC50 was 38.7 µM.

Take `O=C(NCC(c1cccs1)N1CCOCC1)c1cc([N+](=O)[O-])cc([N+](=O)[O-])c1` (configuration not stated): the CC50 was 58.4 µM.

`S=c1nc[nH]c2nc[nH]c12`: the CC50 is 0.56 µM.

For `CCC(C)Nc1ccc(NC(C)CC)cc1` (configuration not stated), the half-maximal cytotoxic concentration (CC50) is 3.31 µM.

Tested on in another experiment: not listed separately
The description is as above. The following applies: THP-1 cell viability, cytotoxicity; at 100 µM (top of the series).
For orientation: viability means a read-out of living cells in per cent, often relative to untreated cells. Turning to `COC(=O)c1ccc(CNc2c(N3CCCC3)c(=O)c2=O)cc1`, the viability was 80.7% (inactive).

On to `CCOC(=O)COc1ccc(/C=C2\NC(=S)N(CC)C2=O)cc1`, for which the viability was 89.2% (inactive).

For `COC(=O)C1CC(=O)N(c2ccc(OCc3ccccc3Cl)cc2)C1` (configuration not stated), the viability was 86.1% (inactive).

For `CCOC(=O)COn1c2c(c3c4no[n+]([O-])c4ccc31)CCCC2`, the viability was 92.6% (inactive).

For `O=C(CSc1nc2ccccc2c(=O)[nH]1)NC1CCCCC1`, the viability is 92.5% (inactive).

With `Cc1ccc(NC(=O)C2C3/C=C\CCCCC32)cc1C` (configuration not stated), the viability is 86.3% (inactive).

As to `COC(=O)CCc1nc2c(C#N)c(-c3ccc(Cl)cc3)ccn2n1`, the viability is 108% (inactive).

`COc1cc(NC(=O)C/C(C)=N/NC(=O)c2ccccn2)c(OC)cc1Cl`: the viability is 101% (inactive).

`COC(=O)C(C)Oc1ccc(-c2nccc(-c3ccccn3)n2)cc1` (configuration not stated): the viability was 91% (inactive).

Regarding `CCOC1OC(=O)C(Cl)=C1Nc1ccccc1C` (configuration not stated), the viability is 81.1% (inactive).

For the compound `Cc1nc(SCC(=O)NC2CCCCC2)[nH]c(=O)c1C`, the viability was 106% (inactive).
